Measured values: ChEMBL document CHEMBL3639306, “1H-imidazo[4,5-c]quinolines” (2014)

Target: T1, 3-phosphoinositide-dependent protein kinase 1 (Homo sapiens, UniProt O15530)
T1 sequence (O15530 whole entry): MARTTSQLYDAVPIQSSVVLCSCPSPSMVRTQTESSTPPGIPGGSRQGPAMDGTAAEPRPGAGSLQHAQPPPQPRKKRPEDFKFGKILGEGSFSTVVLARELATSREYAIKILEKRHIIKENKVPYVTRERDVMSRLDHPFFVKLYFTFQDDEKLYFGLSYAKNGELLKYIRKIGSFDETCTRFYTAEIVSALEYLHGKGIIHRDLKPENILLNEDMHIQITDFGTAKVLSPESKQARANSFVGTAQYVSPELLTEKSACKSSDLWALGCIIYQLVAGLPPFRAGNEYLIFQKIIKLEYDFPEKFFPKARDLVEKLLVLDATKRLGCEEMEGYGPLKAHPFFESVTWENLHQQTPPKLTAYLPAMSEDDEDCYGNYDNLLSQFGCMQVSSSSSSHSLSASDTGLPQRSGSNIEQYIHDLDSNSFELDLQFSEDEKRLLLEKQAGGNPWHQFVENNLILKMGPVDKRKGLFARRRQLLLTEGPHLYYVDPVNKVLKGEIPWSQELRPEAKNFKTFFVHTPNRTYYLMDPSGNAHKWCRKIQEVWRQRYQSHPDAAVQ
Assay: Kinase Assay: Recombinant human PDK1 enzyme (aa 52-556) linked at its N-terminal end to His6 is isolated from baculovirus-infected insect cells. Purified enzyme may be obtained for example from the University of Dundee, Scotland. The following components are combined in a well of a 96-well round-based dish (Greiner bio-one, No. 650101): 1. 15 uL of compound to be tested in varying concentrations (e.g. starting at 10 uM, and diluted in steps of 1:5) in APT buffer (50 mM Tris/Cl pH7.5; 0.05% beta -mercaptoethanol; 10 mM Mg-acetate; 0.0166% Tween 20; 3.33% DMSO) 2. 15 uL His6-PDK1 (aa 52-556) 3.33 ng/well) and PDKtide (KTFCGTPEYLAPEVRRE […]), synthesised by Pepceuticals Limited, Nottingham, United Kingdom; 25 uM final concentration); His6-PDK1 and PDKtide are together diluted accordingly in assay buffer (50 mM tris pH 7.5, 0.05% beta -mercaptoethanol, 10 mM Mg-acetate); PDKtide is present in this mixture as an 83.3 uM solution.

SMILES: O=C(NCC#Cc1ccc2ncc3nc[nH]c3c2c1)c1cccn(Cc2ccc(F)c(F)c2)c1=O
- IC50: 4 nM

SMILES: Cc1nc2cnc3ccc(C#CCNC(=O)c4cc(Cl)nn(Cc5ccc(F)c(F)c5)c4=O)cc3c2n1[C@H]1CCCN(C)C1
- IC50: 111 nM

SMILES: Cn1c(CCO)nc2cnc3ccc(C#CCNC(=O)c4cncn(Cc5ccc(F)c(F)c5)c4=O)cc3c21
- IC50: 14 nM
